# From US20110257177A1, “BENZYLTHIOTETRAZOLE INHIBITORS OF STORE OPERATED CALCIUM RELEASE” (CalciMedica, Inc., priority 2008, published 2011)
# Tested on: JR^251 or RBL cells
# Test: Fluorescence-based assay of store-operated calcium entry, IC50 in either JR^251 or RBL cells, or both
# Format: cell-based
# Method: B. Fluorescence-based Assay of Store-Operated Calcium Entry in RBL-2H3Cells.
# RBL-2H3 cells are obtained from ATCC and maintained in complete medium with 10% FBS at 37° C./6% CO2.
# The day prior to performing the assay, RBL-2H3 cells are plated in 50 μL of complete medium in a 384 well plate. Cells are grown at 37° C./6% CO2 overnight and grow to 50-60% confluence by the next day. On the assay day, 1.5 μM Fluo-4-AM dye (Invitrogen) in complete medium is added and incubated for 1 hour at RT. Cells are washed twice in Ca^2+-free HBSS buffer and 35 μL Ca^2+-free HBSS buffer is added to each well. 10 μL of a test compound prepared in a Ca^2+-free HBSS solution at 4.5× of the desired concentration is added to a well and incubated for 5 minutes at RT. 10 μL of thapsigargin prepared in a Ca^2+-free HBSS solution at 5.5× of the desired concentration (5.5 uM) is added to each well and incubated for an additional 25 minutes. The initial baseline fluorescence signal is measured with a FLIPR^384 (Molecular Devices) plate reader. 5 μL of 12× calcium in HBSS (12 mM) is added and changes in cellular fluorescence are measured with the FLIPR^384 plate reader. In each well, the change in the fluorescent signal as a function of time due to calcium entry into the cell is determined by calculating the difference between the fluorescent signal measured 7 seconds after calcium addition and the initial baseline fluorescence signal at time zero (t=0). This parameter is designated Upslope. The IC50 value is calculated as the concentration at which 50% of the Upslope is inhibited.
# C. Fluorescence-based Assay of Store-Operated Calcium Entry in Jurkat Cells.
# Jurkat E6-1 cells were obtained from ATCC and maintained in complete medium with 10% FBS at 37° C./6% CO2.
# The day prior to performing the assay, Jurkat E6-1 cells are seeded at a density of 2 million cells/mL in complete medium in a T-175 flask. Cells are grown at 37° C./6% CO2 overnight. On the following day, 1.5 μM Fluo-4-AM dye (Invitrogen) in complete medium is added and incubated for 1 hour at RT. Cells are harvested, washed twice in Ca^2+-free HBSS buffer and plated in 35 μL Ca^2+-free HBSS buffer in a 384 well plate. 10 μL of a test compound prepared in a Ca^2+-free HBSS solution at 4.5× of the desired concentration is added to a well and incubated for 5 minutes at RT. 10 μL of thapsigargin prepared in a Ca^2+-free HBSS solution at 5.5× of the desired concentration (5.5 uM) is added to each well and incubated for an additional 25 minutes. The initial baseline fluorescence signal is measured with a FLIPR^384 (Molecular Devices) plate reader. 5 μL of 12× calcium in HBSS (12 mM) is added and changes in cellular fluorescence are measured with the FLIPR^384 plate reader. In each well, the change in the fluorescent signal as a function of time due to calcium entry into the cell is determined by calculating the difference between the fluorescent signal measured 7 seconds after calcium addition and the initial baseline fluorescence signal at time zero (t=0). This parameter is designated Upslope. The IC50 value is calculated as the concentration at which 50% of the Upslope is inhibited.
row,IC50,Structure (SMILES)
1,< 10 µM,"Cc1ccccc1CSc1nnnn1-c1cccc(C)c1C [1-(2,3-dimethylphenyl)-5-(2-methylbenzylthio)-1H-tetrazole]"
2,< 10 µM,"COc1ccc(CSc2nnnn2-c2ccc(C)cc2C)cc1F [1-(2,4-dimethylphenyl)-5-(3-fluoro-4-methoxybenzylthio)-1H-tetrazole]"
3,< 10 µM,"COc1cccc(CSc2nnnn2-c2ccc(C)cc2C)c1 [1-(2,4-dimethylphenyl)-5-(3-methoxybenzylthio)-1H-tetrazole]"
4,< 10 µM,"Cc1ccc(C)c(-n2nnnc2SC(F)(F)c2c(F)c(F)c(F)c(F)c2F)c1 [1-(2,5-dimethylphenyl)-5-(perfluorobenzylthio)-1H-tetrazole]"
5,< 10 µM,"CCOc1ccc(C(C)=O)cc1CSc1nnnn1-c1cc(C)ccc1C [1-(3-((1-(2,5-dimethylphenyl)-1H-tetrazol-5-ylthio)methyl)-4-ethoxyphenyl)ethanone]"
6,< 10 µM,"Cc1ccc(C)c(-n2nnnc2SCc2ccccc2Br)c1 [5-(2-bromobenzylthio)-1-(2,5-dimethylphenyl)-1H-tetrazole]"
